Data reported in the supplement of paper PMC10307832.

Experiments:
Experiment in all cases: relative viability (nuclei count vs DMSO), 5 days (fraction); higher = more cells survive
[1] = tested on: CAL-12T
How it was run: (§1)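 One day after seeding in 1536-well plates, lung cancer cell lines were dosed by pin tool. Dosing was either single-drug or a fixed anchor-drug dose plus five library-drug doses (not always all listed) in √10 steps. After 5 days, nuclei were stained in one fix-and-stain step and counted on 4× images, and relative viability is the nuclei count of treated wells over that of vehicle wells, given as the median of duplicate plates.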

[2] = tested on: Calu-6
How it was run: as §1

[3] = tested on: ChaGo-K-1
How it was run: as §1

[4] = tested on: EBC-1
How it was run: as §1

[5] = tested on: EMC-BAC-2
How it was run: as §1

[6] = tested on: HCC-366
How it was run: as §1

[7] = tested on: HCC-78
How it was run: as §1

[8] = tested on: HOP-62
How it was run: as §1

[9] = tested on: LC-2-ad
How it was run: as §1

[10] = tested on: LK-2
How it was run: as §1

[11] = tested on: NCI-H1355
How it was run: as §1

[12] = tested on: NCI-H1734
How it was run: as §1

[13] = tested on: NCI-H1993
How it was run: as §1

[14] = tested on: NCI-H2009
How it was run: as §1

[15] = tested on: NCI-H2085
How it was run: as §1

[16] = tested on: NCI-H2228
How it was run: as §1

[17] = tested on: NCI-H2347
How it was run: as §1

[18] = tested on: NCI-H2405
How it was run: as §1

[19] = tested on: NCI-H3122
How it was run: as §1

[20] = tested on: NCI-H596
How it was run: as §1

[21] = tested on: PC-14
How it was run: as §1

[22] = tested on: RERF-LC-KJ
How it was run: as §1

[23] = tested on: SK-MES-1
How it was run: as §1

[24] = tested on: SW 1573
How it was run: as §1

Structure (SMILES): CCCCCCCCCCCC1=C(O)C(=O)C=C(O)C1=O [Embelin] + CS(=O)(=O)N1CCN(Cc2cc3nc(-c4cccc5[nH]ncc45)nc(N4CCOCC4)c3s2)CC1 [Pictilisib] (partner 1 µM)
- relative viability ([1]; first compound 0.08 µM): 0.49
- relative viability ([1]; first compound 0.8 µM): 0.587
- relative viability ([1]; first compound 8 µM): 0.391
- relative viability ([2]; first compound 0.08 µM): 0.949
- relative viability ([2]; first compound 0.8 µM): 1.12
- relative viability ([2]; first compound 2.53 µM): 1.1
- relative viability ([2]; first compound 8 µM): 0.891
- relative viability ([3]; first compound 0.08 µM): 1
- relative viability ([3]; first compound 0.8 µM): 1.22
- relative viability ([3]; first compound 2.53 µM): 0.626
- relative viability ([3]; first compound 8 µM): 0.428
- relative viability ([4]; first compound 0.08 µM): 0.446
- relative viability ([4]; first compound 0.8 µM): 0.362
- relative viability ([4]; first compound 2.53 µM): 0.446
- relative viability ([4]; first compound 8 µM): 0.336
- relative viability ([5]; first compound 0.08 µM): 0.498
- relative viability ([5]; first compound 0.8 µM): 0.533
- relative viability ([5]; first compound 2.53 µM): 0.442
- relative viability ([5]; first compound 8 µM): 0.476
- relative viability ([6]; first compound 0.08 µM): 0.151
- relative viability ([6]; first compound 0.8 µM): 0.203
- relative viability ([6]; first compound 2.53 µM): 0.149
- relative viability ([6]; first compound 8 µM): 0.127
- relative viability ([7]; first compound 0.08 µM): 0.263
- relative viability ([7]; first compound 0.8 µM): 0.216
- relative viability ([7]; first compound 2.53 µM): 0.225
- relative viability ([7]; first compound 8 µM): 0.219
- relative viability ([8]; first compound 0.08 µM): 0.883
- relative viability ([8]; first compound 0.8 µM): 0.964
- relative viability ([8]; first compound 2.53 µM): 0.433
- relative viability ([8]; first compound 8 µM): 0.503
- relative viability ([9]; first compound 0.08 µM): 0.458
- relative viability ([9]; first compound 0.8 µM): 0.566
- relative viability ([9]; first compound 2.53 µM): 0.618
- relative viability ([9]; first compound 8 µM): 0.392
- relative viability ([10]; first compound 0.08 µM): 0.567
- relative viability ([10]; first compound 0.8 µM): 0.578
- relative viability ([10]; first compound 2.53 µM): 0.63
- relative viability ([10]; first compound 8 µM): 0.562
- relative viability ([11]; first compound 0.08 µM): 0.501
- relative viability ([11]; first compound 0.8 µM): 0.601
- relative viability ([11]; first compound 2.53 µM): 0.4
- relative viability ([11]; first compound 8 µM): 0.273
- relative viability ([12]; first compound 0.08 µM): 0.492
- relative viability ([12]; first compound 0.8 µM): 0.547
- relative viability ([12]; first compound 2.53 µM): 0.557
- relative viability ([12]; first compound 8 µM): 0.431
- relative viability ([13]; first compound 0.08 µM): 0.729
- relative viability ([13]; first compound 0.8 µM): 0.733
- relative viability ([13]; first compound 2.53 µM): 0.776
- relative viability ([13]; first compound 8 µM): 0.803
- relative viability ([14]; first compound 0.08 µM): 0.947
- relative viability ([14]; first compound 0.8 µM): 1.09
- relative viability ([14]; first compound 2.53 µM): 0.659
- relative viability ([14]; first compound 8 µM): 0.679
- relative viability ([15]; first compound 0.08 µM): 0.44
- relative viability ([15]; first compound 0.8 µM): 0.404
- relative viability ([15]; first compound 2.53 µM): 0.44
- relative viability ([15]; first compound 8 µM): 0.46
- relative viability ([16]; first compound 0.08 µM): 0.476
- relative viability ([16]; first compound 0.8 µM): 0.375
- relative viability ([16]; first compound 2.53 µM): 0.457
- relative viability ([16]; first compound 8 µM): 0.366
- relative viability ([17]; first compound 0.08 µM): 0.64
- relative viability ([17]; first compound 0.8 µM): 0.886
- relative viability ([17]; first compound 2.53 µM): 0.924
- relative viability ([17]; first compound 8 µM): 0.592
- relative viability ([18]; first compound 0.08 µM): 0.555
- relative viability ([18]; first compound 0.8 µM): 0.59
- relative viability ([18]; first compound 2.53 µM): 0.439
- relative viability ([18]; first compound 8 µM): 0.323
- relative viability ([19]; first compound 0.08 µM): 0.647
- relative viability ([19]; first compound 0.8 µM): 0.605
- relative viability ([19]; first compound 2.53 µM): 0.755
- relative viability ([19]; first compound 8 µM): 0.616
- relative viability ([20]; first compound 0.08 µM): 0.389
- relative viability ([20]; first compound 0.8 µM): 0.432
- relative viability ([20]; first compound 2.53 µM): 0.481
- relative viability ([20]; first compound 8 µM): 0.357
- relative viability ([21]; first compound 0.08 µM): 0.669
- relative viability ([21]; first compound 0.8 µM): 0.804
- relative viability ([21]; first compound 2.53 µM): 1.16
- relative viability ([21]; first compound 8 µM): 0.717
- relative viability ([22]; first compound 0.08 µM): 0.494
- relative viability ([22]; first compound 0.8 µM): 0.652
- relative viability ([22]; first compound 2.53 µM): 0.618
- relative viability ([22]; first compound 8 µM): 0.587
- relative viability ([23]; first compound 0.08 µM): 0.347
- relative viability ([23]; first compound 0.8 µM): 0.421
- relative viability ([23]; first compound 2.53 µM): 0.35
- relative viability ([23]; first compound 8 µM): 0.359
- relative viability ([24]; first compound 0.08 µM): 0.475
- relative viability ([24]; first compound 0.8 µM): 0.546
- relative viability ([24]; first compound 2.53 µM): 0.555
- relative viability ([24]; first compound 8 µM): 0.527
